# Reference: patent US20240327354A1, “GRAM-NEGATIVE BACTERIA EFFLUX PUMP INHIBITORS” (INSTITUT NATIONAL DE LA SANTÉ ET DE LA RECHERCHE MÉDICALE, priority 2021, published 2024)
# pEC50: −log10 of the molar value. Counter-ions that a name gives are not always drawn.
# Tested on: E. coli BW25113
# Assay: Assay 1: growth inhibition of E. coli by sub-inhibitory pyridomycin in combination with examples (resazurin reduction)
# Format: cell-based, Escherichia coli
# Conditions: read-out: EC50 on E. coli with 8 μg/mL of pyridomycin, 8 μg/mL pyridomycin, 5 h, 37° C.
# Text: Escherichia coli BW25113 (CGSC 7636) and its derivatives E. coli ΔtolC (JW5503-1, ΔtolC732::kan, CGSC 11430), E. coli ΔacrA (JW0452-3, ΔacrA748::kan, CGSC 11843) and E. coli ΔacrB (JW0451-2, ΔacrB747::kan, CGSC 8609) were obtained from E. coli Genetic Stock Center (CGSC, New Haven, Connecticut) and originated from the Keio Collection (Baba T et al, Mol Sys Biol, 2006). Klebsiella pneumoniae (LMG 2095/ATCC 13883) and K. pneumoniae (ATCC43816), Pseudomonas aeruginosa (PAO1), Acinetobacter baumannii (LMG 1025, ATCC 17978), were obtained from ATCC or BCCM/LMG Bacteria Collection. All bacteria were grown and tested in cation-adjusted Mueller-Hinton broth (CAMHB; BD Difco) at 37° C. For conservation, log phase bacteria were frozen (−80° C.) in CAMHB supplemented with 15% glycerol.
# Briefly, E. coli BW25113 were diluted from frozen or growing stocks to an OD600 of 0.0004-0.001 in CAMHB. […] E. coli BW25113 viability was evaluated using the resazurin reduction assay, and measured by fluorescence (POLARstar Omega, BMG Labtech: Ex: 530 nm Em: 590 nm). EC50 were defined as the compound concentration that prevented 50% of resazurin turnover compared to the non-treated bacteria.
row,SMILES,pEC50
1,"Clc1cc2cc(N[C@H]3CCCNC3)ccc2nc1N1CCNCC1 (stereo in doubt) [Example 104, 3-chloro-2-piperazin-1-yl-N-(3-piperidyl)quinolin-6-amine;dihydrochloride]",> 5.30
2,"CN1CCN(c2ncc(C(F)(F)F)cc2Cl)CC1 [Example 1, 1-[3-chloro-5-(trifluoromethyl)-2-pyridyl]-4-methyl-piperazine]",3.30 to 4.00
3,"CN1CCN(c2ncc(C(F)(F)F)cc2Br)CC1 [Example 2, 1-[3-bromo-5-(trifluoromethyl)-2-pyridyl]-4-methyl-piperazine]",4.00 to 5.30
4,"COC(=O)c1cnc(N2CCN(C)CC2)c(Cl)c1 [Example 3, methyl 5-chloro-6-(4-methylpiperazin-1-yl)pyridine-3-carboxylate]",4.00 to 5.30
5,"CN1CCN(c2ncc(Br)cc2Cl)CC1 [Example 4, 1-(5-bromo-3-chloro-2-pyridyl)-4-methyl-piperazine]",4.00 to 5.30
6,"CN1CCN(c2ccc(C(F)(F)F)cc2Cl)CC1 [Example 5, 1-[2-chloro-4-(trifluoromethyl)phenyl]-4-methyl-piperazine]",3.30 to 4.00
7,"NC1CCN(c2ncc(C(F)(F)F)cc2Cl)CC1 [Example 7, 1-[3-chloro-5-(trifluoromethyl)-2-pyridyl]piperidin-4-amine]",3.30 to 4.00
8,"Cc1cnc(N2CCN(C)CC2)c(Cl)c1 [Example 10, 1-(3-chloro-5-methyl-2-pyridyl)-4-methyl-piperazine]",4.00 to 5.30
9,"Cc1cnc(N2CCNCC2)c(Cl)c1 [Example 12, 1-(3-chloro-5-methyl-2-pyridyl)piperazine; hydrochloride]",4.00 to 5.30
10,"COc1cnc(N2CCNCC2)c(Cl)c1 [Example 13, 1-(3-chloro-5-methoxy-2-pyridyl)piperazine;hydrochloride]",3.30 to 4.00
11,"COC(=O)c1cnc(N2CCNCC2)c(Cl)c1 [Example 18, methyl 5-chloro-6-piperazin-1-yl-pyridine-3-carboxylate; hydrochloride]",4.00 to 5.30
12,"Clc1cc(Br)cnc1N1CCNCC1 [Example 19, 1-(5-bromo-3-chloro-2-pyridyl)piperazine;hydrochloride]",4.00 to 5.30
13,"NCCc1ccc(OC(=O)c2cnc(N3CCNCC3)c(Cl)c2)cc1 [Example 28, [4-(2-aminoethyl)phenyl] 5-chloro-6-piperazin-1-yl-pyridine-3-carboxylate;dihydrochloride]",> 5.30
14,"NCc1cccc(OC(=O)c2cnc(N3CCNCC3)c(Cl)c2)c1 [Example 29, [3-(aminomethyl)phenyl] 5-chloro-6-piperazin-1-yl-pyridine-3-carboxylate;dihydrochloride]",> 5.30
15,"CCOC(=O)c1cnc(N2CCNCC2)c(Cl)c1 [Example 32, ethyl 5-chloro-6-piperazin-1-yl-pyridine-3-carboxylate; hydrochloride]",4.00 to 5.30
16,"NCCc1ccc(NC(=O)c2cnc(N3CCNCC3)c(Cl)c2)cc1 [Example 34, N-[4-(2-aminoethyl)phenyl]-5-chloro-6-piperazin-1-yl-pyridine-3-carboxamide;dihydrochloride]",4.00 to 5.30
17,"CC(=O)Nc1cnc(N2CCNCC2)c(Cl)c1 [Example 35, N-(5-chloro-6-piperazin-1-yl-3-pyridyl)acetamide;hydrochloride]",3.30 to 4.00
18,"CS(=O)(=O)Nc1cnc(N2CCNCC2)c(Cl)c1 [Example 36, N-(5-chloro-6-piperazin-1-yl-3-pyridyl)methane sulfonamide;hydrochloride]",3.30 to 4.00
19,"Clc1nc2ccccc2cc1N1CCNCC1 [Example 40, 2-chloro-3-piperazin-1-yl-quinoline;hydrochloride]",4.00 to 5.30

row,SMILES,pEC50
1,"Cc1cc2nc(Cl)c(N3CCNCC3)nc2cc1C [Example 47, 2-chloro-6,7-dimethyl-3-piperazin-1-yl-quinoxaline;hydrochloride]",> 5.30
2,"C[C@H]1CN(c2nc3ccccc3nc2Cl)CCN1 [Example 50, 2-chloro-3-[(3S)-3-methylpiperazin-1-yl]quinoxaline;hydrochloride]",4.00 to 5.30
3,"Clc1cc2cc(N3CCNCC3)ccc2nc1N1CCNCC1 [Example 56, 3-chloro-2,6-di(piperazin-1 yl)quinoline;dihydrochloride]",> 5.30
4,"Clc1cc2cc(Br)ccc2nc1N1CCNCC1 [Example 60, 6-bromo-3-chloro-2-piperazin-1-yl-quinoline;hydrochloride]",4.00 to 5.30
5,"Clc1cc2cc(I)ccc2nc1N1CCNCC1 [Example 61, 3-chloro-6-iodo-2-piperazin-1-yl-quinoline;hydrochloride]",> 5.30
6,"NCCNc1ccc2nc(N3CCNCC3)c(Cl)cc2c1 [Example 62, N′-(3-chloro-2-piperazin-1-yl-6-quinolyl)ethane-1,2-diamine; dihydrochloride]",> 5.30
7,"NCCCNc1ccc2nc(N3CCNCC3)c(Cl)cc2c1 [Example 63, N′-(3-chloro-2-piperazin-1-yl-6-quinolyl)propane-1,3-diamine; dihydrochloride]",> 5.30
8,"O=C1CNCCN1c1ccc2nc(N3CCNCC3)c(Cl)cc2c1 [Example 64, 1-(3-chloro-2-piperazin-1-yl-6-quinolyl)piperazin-2-one;dihydrochloride]",4.00 to 5.30
9,"NCC(=O)Nc1ccc2nc(N3CCNCC3)c(Cl)cc2c1 [Example 65, 2-amino-N-(3-chloro-2-piperazin-1-yl-6-quinolyl)acetamide;dihydrochloride]",> 5.30
10,"Clc1cc2cc(N3CCCCC3)ccc2nc1N1CCNCC1 [Example 67, 3-chloro-2-piperazin-1-yl-6-(1-piperidyl)quinoline;hydrochloride]",4.00 to 5.30
11,"NCC1CCCN(c2ccc3nc(N4CCNCC4)c(Cl)cc3c2)C1 (stereo not shown) [Example 68, [1-(3-chloro-2-piperazin-1-yl-6-quinolyl)-3-piperidyl]methanamine;dihydrochloride]",> 5.30
12,"Clc1cc2ncccc2nc1N1CCNCC1 [Example 69, 3-chloro-2-piperazin-1-yl-1,5-naphthyridine; hydrochloride]",4.00 to 5.30
13,"COc1ccc2nc(Cl)c(N3CCNCC3)nc2c1 [Example 70, 2-chloro-6-methoxy-3-piperazin-1-yl-quinoxaline; hydrochloride]",4.00 to 5.30
14,"NCCc1ccc(C(=O)Nc2cnc(N3CCNCC3)c(Cl)c2)cc1 [Example 71, 4-(2-aminoethyl)-N-(5-chloro-6-piperazin-1-yl-3-pyridyl)benzamide;dihydrochloride]",4.00 to 5.30
15,"Cc1nnc(-c2cnc(N3CCNCC3)c(Cl)c2)o1 [Example 72, 2-(5-chloro-6-piperazin-1-yl-3-pyridyl)-5-methyl-1,3,4-oxadiazole]",4.00 to 5.30
16,"Cc1nc(-c2cnc(N3CCNCC3)c(Cl)c2)no1 [Example 73, 3-(5-chloro-6-piperazin-1-yl-3-pyridyl)-5-methyl-1,2,4-oxadiazole;hydrochloride]",4.00 to 5.30
17,"NCc1nc(-c2cnc(N3CCNCC3)c(Cl)c2)no1 [Example 74, [3-(5-chloro-6-piperazin-1-yl-3-pyridyl)-1,2,4-oxadiazol-5-yl]methanamine;dihydrochloride]",4.00 to 5.30
18,"NCCc1nc(-c2cnc(N3CCNCC3)c(Cl)c2)no1 [Example 75, 2-[3-(5-chloro-6-piperazin-1-yl-3-pyridyl)-1,2,4-oxadiazol-5-yl]ethanamine;dihydrochloride]",> 5.30
